Data: patent publication US9642839B2, “Substance having tyrosine kinase inhibitory activity and preparation method and use thereof” (Institute of Radiation Medicine, China Academy of Military …, priority 2013, dated 2017)

What was measured:
c-Met = settings: MHCC97-H cells, 2 μM versus 1 μM SU11274
Protocol: The medium was changed once every 1-2 days. […] The supernatant was discarded, and fresh medium was added for subculture.
SU11274 (purchased from Sigma) is a specific c-Met kinase inhibitor which may block activation of c-Met. […] After incubation with the compounds for 2 h, the cells were harvested and total protein was extracted. Western blot assay was carried out with c-Met phosphorylated and non-phosphorylated antibodies, ERK phosphorylated and non-phosphorylated antibodies, Akt phosphorylated and non-phosphorylated antibodies (all purchased from Cell Signaling), and GAPDH antibody (purchased from Santa Cruz).

PDGFR = experiment: Kinase Glo Plus kinase activity assay; format: biochemical
Protocol: (§1) 2) Activity of the rest 14 receptor tyrosine kinases was tested by using Kinase Glo Plus assay format, Progmag, and IC50 with regard to kinase activity was calculated based on the inhibition rate.

TrkB = TrkB (Homo sapiens, UniProt Q16620); experiment: Kinase Glo Plus kinase activity assay; format: biochemical
Protocol: as §1

FGFR = experiment: Kinase Glo Plus kinase activity assay; format: biochemical
Protocol: as §1

TrkA [1] = molecular target: T1, TrkA (Homo sapiens, UniProt P04629); experiment: Kinase Glo Plus kinase activity assay; format: biochemical
Protocol: as §1

A375 cells = experiment: In vitro antitumor activity, MTS cell proliferation; format: cell-based; settings: Homo sapiens, A-375, A375, skin cancer, 72 hours
Protocol: (§2) Method: 14 cell lines (MKN-45 cells, MHCC97-L cells, MHCC97-H cells, HLE cells, HepG2 cells, 7721 cells, L02 cells, A375 cells, H460 cells, A549 cells, SK-N-SH cells, MCF-7 cells, K562 cells, and Ba/F3-Tpr-Met cells (pre-B cells which are malignantly transformed by the c-Met constitutive active mutant Tpr-Met) were seeded into 96-well plate at 1×10^4 cells/well, and each well was added with 150 μl DMEM medium (purchased from Invitrogen) containing 10% fetal bovine serum (purchased from Hyclone). When cell adherent was observed, different concentrations of 2-indolone derivatives (concentrations at 0.1-10 μM) were added, in addition to the negative control (vehicle control group) and blank control (medium group). After culture at 37° C., 5% CO2 for 72 hours, MTS reagent (Promega Corporation) were added for further culture for 2-4 h.

MKN-45 cells = experiment: as above; format: cell-based; settings: Homo sapiens, MKN-45, gastric cancer, 72 hours
Protocol: as §2

HepG2 cells = experiment: as above; format: cell-based; settings: Homo sapiens, HepG2, hepatocellular cancer, 72 hours
Protocol: as §2

MCF-7 cells = experiment: as above; format: cell-based; settings: Homo sapiens, MCF7, MCF-7, breast cancer, 72 hours
Protocol: as §2

SK-N-SH cells = experiment: as above; format: cell-based; settings: Homo sapiens, neuroblastoma, 72 hours
Protocol: as §2

H460 cells = experiment: as above; format: cell-based; settings: Homo sapiens, NCI-H460, H460, lung cancer, 72 hours
Protocol: as §2

K562 cells = experiment: as above; format: cell-based; settings: Homo sapiens, K562, leukemia, 72 hours
Protocol: as §2

MHCC97-L cells = experiment: as above; format: cell-based; settings: MHCC97L, hepatocellular cancer, 72 hours
Protocol: as §2

Ba/F3-Tpr-Met cells = experiment: as above; format: cell-based; settings: pre-B cell, 72 hours
Protocol: as §2

HLE cells = experiment: as above; format: cell-based; settings: Homo sapiens, hepatocellular cancer, 72 hours
Protocol: as §2

[2] = test system: neuroblastoma SK-N-SH cells; experiment: Subcutaneous SK-N-SH tumor-bearing nude mouse model; format: in vivo, nu/nu female mice; settings: SK-N-SH s.c. nude mice, once every 24 h, 6 administrations
From the text: Model establishment: nu/nu female mice of 6-8 weeks old were fed under an SPF condition in an animal facility for one week, and then each of them was inoculated with 5×10^6 neuroblastoma SK-N-SH cells (purchased from ATCC) subcutaneously in left flank. Tumor volume was monitored every day after inoculation. Once the size reached ˜100 mm^3, mice were divided into groups.
Each group included 10 animals.

lung cancer cell A549 = experiment: Lung orthotopic tumor formation model; format: in vivo, BALB/c nude mice; settings: for Tumor inhibition rate / Weight of tumor: 6 administrations; for Average weight (X ± S), End: animal weight at end, in g (unit assumed)
Protocol: The medium was changed once every 1-2 days. […] The subcultured tumor cells were digested into suspensions under a sterile condition, and orthotopically injected into BALB/c nude mice at the left chest between the third and fourth ribs (3.0×10^6 cells/mouse, 30 μl). The inoculation needle entered into the pulmonary lobe at a depth of about 5 mm. The inoculation day is labeled as DO. Seven days later, animals were weighed and randomized into groups based on body weight.
Method: Animal models were randomized into three groups, vehicle control group (DMSO injected intraperitoneally), intraperitoneal low dose group (18 mg/kg), and intraperitoneal high dose group (36 mg/kg). The animals received treatment once every 24 hours. After 6 times of successive administration, animals were kept for another 30 days. At the end of this experiment, animals were sacrificed, and dissected to obtain lungs. Tumor was dissected and weighed.

TrkA [3] = molecular target: T1, TrkA; experiment: Western blot, NGF-induced TrkA phosphorylation and signaling pathway in SK-N-SH cells; format: cell-based; settings: 0.05-1.0 μM, 500 ng/mL NGF
Protocol: The medium was changed once every 1-2 days. […] 500 ng/mL NGF or 200 ng/ml BDNF (if not added, marked as “-”) were added to stimulate the cells for 5 min. After cell lysis, total protein was extracted. Western blot assay was carried out with TrkA phosphorylated and non-phosphorylated (p-TrkA) antibodies, TrkB phosphorylated and non-phosphorylated (p-TrkB) antibodies, ERK phosphorylated and non-phosphorylated (p-ERK) antibodies, Akt phosphorylated and non-phosphorylated (p-Akt) antibodies, and GAPDH antibody.

[4] = intraperitoneal high dose 36 mg/kg
[5] = intraperitoneal low dose 18 mg/kg

T1 sequence (P04629 33-796, species assumed): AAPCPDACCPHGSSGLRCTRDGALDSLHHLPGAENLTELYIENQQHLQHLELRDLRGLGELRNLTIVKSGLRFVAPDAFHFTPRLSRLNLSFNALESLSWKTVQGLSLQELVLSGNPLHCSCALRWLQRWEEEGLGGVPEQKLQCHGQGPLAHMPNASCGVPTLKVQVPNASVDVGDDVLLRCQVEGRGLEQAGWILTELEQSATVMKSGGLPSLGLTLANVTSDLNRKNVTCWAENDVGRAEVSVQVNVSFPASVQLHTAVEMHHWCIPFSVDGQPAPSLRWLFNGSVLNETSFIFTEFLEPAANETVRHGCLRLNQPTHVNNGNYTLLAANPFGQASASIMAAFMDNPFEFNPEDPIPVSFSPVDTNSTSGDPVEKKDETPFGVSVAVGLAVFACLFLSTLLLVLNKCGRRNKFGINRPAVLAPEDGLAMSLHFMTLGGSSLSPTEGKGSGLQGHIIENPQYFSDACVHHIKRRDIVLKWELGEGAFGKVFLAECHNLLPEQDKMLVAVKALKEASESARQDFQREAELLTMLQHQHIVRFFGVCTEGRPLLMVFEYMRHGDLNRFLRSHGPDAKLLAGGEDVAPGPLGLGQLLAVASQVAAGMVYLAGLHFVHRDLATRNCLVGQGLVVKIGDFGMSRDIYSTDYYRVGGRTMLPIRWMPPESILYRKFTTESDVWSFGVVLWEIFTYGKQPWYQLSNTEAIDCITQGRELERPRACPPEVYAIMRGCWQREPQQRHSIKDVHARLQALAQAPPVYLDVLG
Sequence of TrkB (Q16620 32-822, species assumed): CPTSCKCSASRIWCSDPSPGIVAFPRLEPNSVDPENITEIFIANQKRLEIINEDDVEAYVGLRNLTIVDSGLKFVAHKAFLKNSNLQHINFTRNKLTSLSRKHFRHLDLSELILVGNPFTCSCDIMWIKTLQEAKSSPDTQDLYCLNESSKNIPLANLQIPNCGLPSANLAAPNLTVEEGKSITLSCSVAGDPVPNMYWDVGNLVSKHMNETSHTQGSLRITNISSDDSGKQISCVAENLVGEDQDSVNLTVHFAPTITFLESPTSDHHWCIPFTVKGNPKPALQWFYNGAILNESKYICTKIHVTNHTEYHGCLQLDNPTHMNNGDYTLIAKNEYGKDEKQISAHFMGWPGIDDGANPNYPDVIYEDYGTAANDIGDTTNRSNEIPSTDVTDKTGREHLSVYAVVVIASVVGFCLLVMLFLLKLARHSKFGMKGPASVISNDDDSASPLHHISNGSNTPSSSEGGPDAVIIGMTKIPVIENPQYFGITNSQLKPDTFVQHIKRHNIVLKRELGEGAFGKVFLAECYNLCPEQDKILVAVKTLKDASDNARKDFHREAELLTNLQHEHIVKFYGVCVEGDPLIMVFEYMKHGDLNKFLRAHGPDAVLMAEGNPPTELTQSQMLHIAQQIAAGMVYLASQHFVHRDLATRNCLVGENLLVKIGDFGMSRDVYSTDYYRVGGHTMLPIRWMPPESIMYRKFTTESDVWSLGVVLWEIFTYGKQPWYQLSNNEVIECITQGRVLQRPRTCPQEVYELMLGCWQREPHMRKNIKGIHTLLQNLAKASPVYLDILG

## Cc1ccccc1NS(=O)(=O)c1ccc2c(c1)/C(=C/c1nc3ccccc3[nH]1)C(=O)N2 [Indo 5, 3-(1H-benzimidazol-2-methylene)-5-(2-methylphenylaminosulfo)-2-indolone]
c-Met
  Inhibitory effect on c-Met phosphorylation versus positive control: comparable to the positive control SU11274
PDGFR
  IC50: > 10000 nM
TrkB
  IC50: 230 nM
FGFR
  IC50: > 10000 nM
TrkA [1]
  IC50: 22 nM
A375 cells
  IC50: 1870 nM
MKN-45 cells
  IC50: 1550 nM
HepG2 cells
  IC50: 5660 nM
MCF-7 cells
  IC50: 1280 nM
SK-N-SH cells
  IC50: 1190 nM
H460 cells
  IC50: 1070 nM
K562 cells
  IC50: 2580 nM
MHCC97-L cells
  IC50: 1210 nM
Ba/F3-Tpr-Met cells
  IC50: 4790 nM
HLE cells
  IC50: 5230 nM
[2]; 16 mg/kg gavage
  Tumor inhibition rate: 48%
[2]; 16 mg/kg intraperitoneal
  Tumor inhibition rate: 50%
Lung cancer cell A549; [4]
  Tumor inhibition rate: 40.7%
  Weight of tumor: 0.224 ± 0.07 g
  Average weight (X ± S), End: 20.4 ± 0.3
Lung cancer cell A549; [5]
  Tumor inhibition rate: 23.8%
  Weight of tumor: 0.288 ± 0.08 g
  Average weight (X ± S), End: 19.5 ± 0.7
TrkA [3]
  Phosphorylation of TrkA and downstream ERK: significantly inhibited
